The source made the active and inactive calls. The calls are words filed in the database; no cut-off is given here.
Tests used:
Mus musculus [1] = assay: Induction of Nrf2-mediated cytoprotective activity in C57BL/6J mouse assessed as increase of HO-1 level in liver at 50 mg/kg, po qd for 7 days measured after 24 hrs of last dose; format: functional, organism-based
Mus musculus [2] = assay: Toxicity in C57BL/6J mouse assessed as change in body weight at 50 mg/kg, po qd for 7 days; format: organism-based; conditions: in vivo, 168 h
[3] = biological target: T1, Nuclear factor erythroid 2-related factor 2 (Homo sapiens) (UniProt Q16236); assay: Increase of Nrf2 phosphorylation at ser-40 in human HSC3 cells at 50 uM after 24 hrs by Western blot analysis relative to control; format: cell-based; conditions: HSC-3
T1 sequence (whole entry): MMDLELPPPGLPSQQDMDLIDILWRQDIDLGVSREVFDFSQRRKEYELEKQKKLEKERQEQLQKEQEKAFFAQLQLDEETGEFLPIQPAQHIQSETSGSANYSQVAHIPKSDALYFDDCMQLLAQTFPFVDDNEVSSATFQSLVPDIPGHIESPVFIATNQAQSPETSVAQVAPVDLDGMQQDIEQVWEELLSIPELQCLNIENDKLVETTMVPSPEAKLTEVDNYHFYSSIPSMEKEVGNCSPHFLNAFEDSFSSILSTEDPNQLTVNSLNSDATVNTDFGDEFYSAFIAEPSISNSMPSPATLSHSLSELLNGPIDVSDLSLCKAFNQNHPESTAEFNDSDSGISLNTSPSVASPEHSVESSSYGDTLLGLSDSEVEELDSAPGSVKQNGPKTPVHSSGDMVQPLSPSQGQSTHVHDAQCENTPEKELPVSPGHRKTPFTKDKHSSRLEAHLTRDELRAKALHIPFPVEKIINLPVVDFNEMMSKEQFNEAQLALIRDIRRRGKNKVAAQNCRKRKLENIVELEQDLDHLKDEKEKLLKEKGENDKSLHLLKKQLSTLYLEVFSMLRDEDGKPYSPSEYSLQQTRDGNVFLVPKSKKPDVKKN

[4] = biological target: T1, Nuclear factor erythroid 2-related factor 2 (Homo sapiens); assay: Activation of Nrf2 in human HSC3-ARE9 cells assessed as increase of ARE-mediated luciferase expression at 50 uM after 24 hrs in presence of PI3K inhibitor LY294002; format: cell-based
[5] = biological target: T1, Nuclear factor erythroid 2-related factor 2 (Homo sapiens); assay: Activation of Nrf2 in human HSC3-ARE9 cells assessed as increase of ARE-mediated luciferase expression at 50 uM after 24 hrs in presence of PKC inhibitor Ro-31-8220; format: cell-based
[6] = biological target: T1, Nuclear factor erythroid 2-related factor 2 (Homo sapiens); assay: Activation of Nrf2 in human HSC3-ARE9 cells assessed as increase of ARE-mediated luciferase expression at 50 uM after 24 hrs in presence of MEK inhibitor U0126; format: cell-based
[7] = biological target: T1, Nuclear factor erythroid 2-related factor 2 (Homo sapiens); assay: Activation of Nrf2 in human HSC3-ARE9 cells assessed as increase of ARE-mediated luciferase expression at 50 uM after 24 hrs in presence of p38 inhibitor SB203580; format: cell-based
[8] = Antioxidant activity assessed as DPPH radical scavenging activity; format: physicochemical
[9] = biological target: T1, Nuclear factor erythroid 2-related factor 2 (Homo sapiens); assay: Activation of Nrf2 in human HSC3-ARE9 cells assessed as increase of ARE-mediated GR mRNA expression at 50 uM after 24 hrs by RT-PCR analysis relative to control; format: cell-based
[10] = biological target: T1, Nuclear factor erythroid 2-related factor 2 (Homo sapiens); assay: Activation of Nrf2 in human HSC3-ARE9 cells assessed as increase of ARE-mediated NQO1 mRNA expression at 50 uM after 24 hrs by RT-PCR analysis relative to control; format: cell-based
[11] = biological target: T1, Nuclear factor erythroid 2-related factor 2 (Homo sapiens); assay: Activation of Nrf2 in human HSC3-ARE9 cells assessed as increase of ARE-mediated Prx1 mRNA expression at 50 uM after 24 hrs by RT-PCR analysis relative to control; format: cell-based
[12] = biological target: T1, Nuclear factor erythroid 2-related factor 2 (Homo sapiens); assay: Activation of Nrf2 in human HSC3-ARE9 cells assessed as increase of ARE-mediated AKR1C1 protein expression after 24 hrs by Western blot analysis; format: cell-based
[13] = biological target: T1, Nuclear factor erythroid 2-related factor 2 (Homo sapiens); assay: Activation of Nrf2 in human HSC3-ARE9 cells assessed as increase of ARE-mediated GCLC protein expression after 24 hrs by Western blot analysis; format: cell-based
[14] = biological target: T1, Nuclear factor erythroid 2-related factor 2 (Homo sapiens); assay: Activation of Nrf2 in human HSC3-ARE9 cells assessed as increase of ARE-mediated Prx1 protein expression after 24 hrs by Western blot analysis; format: cell-based
[15] = biological target: T1, Nuclear factor erythroid 2-related factor 2 (Homo sapiens); assay: Activation of Nrf2 in human HSC3-ARE9 cells assessed as increase of protein level in nucleus after 24 hrs by Western blot analysis; format: cell-based
HSC-3 = assay: Inhibition of t-BOOH-induced oxidative stress in human HSC3 cells assessed as intracellular ROS level at 50 uM after 24 hrs by DCF fluorescence assay; format: functional, cell-based
Mus musculus [16] = assay: Induction of Nrf2-mediated cytoprotective activity in C57BL/6J mouse assessed as increase of AKR1C1 level in liver at 50 mg/kg, po qd for 7 days measured after 24 hrs of last dose; format: functional, organism-based
Mus musculus [17] = assay: Induction of Nrf2-mediated cytoprotective activity in C57BL/6J mouse assessed as increase of GR level in liver at 50 mg/kg, po qd for 7 days measured after 24 hrs of last dose; format: functional, organism-based
[18] = biological target: T1, Nuclear factor erythroid 2-related factor 2 (Homo sapiens); assay: Activation of Nrf2 in human HSC3-ARE9 cells assessed as increase of ARE-mediated luciferase expression at 50 uM after 24 hrs relative to control; format: cell-based
[19] = biological target: T1, Nuclear factor erythroid 2-related factor 2 (Homo sapiens); assay: Activation of Nrf2 in human HSC3-ARE9 cells assessed as increase of ARE-mediated luciferase expression after 24 hrs; format: cell-based
[20] = Cytotoxicity against human HSC3 cells after 24 hrs by MTT assay; format: cell-based; conditions: hsc-3, 24 h
[21] = biological target: T1, Nuclear factor erythroid 2-related factor 2 (Homo sapiens); assay: Activation of Nrf2 in human HSC3-ARE9 cells assessed as increase of ARE-mediated ABCC3 mRNA expression at 50 uM after 24 hrs by RT-PCR analysis relative to control; format: cell-based
[22] = biological target: T1, Nuclear factor erythroid 2-related factor 2 (Homo sapiens); assay: Activation of Nrf2 in human HSC3-ARE9 cells assessed as increase of ARE-mediated AKR1C1 mRNA expression at 50 uM after 24 hrs by RT-PCR analysis relative to control; format: cell-based
[23] = biological target: T1, Nuclear factor erythroid 2-related factor 2 (Homo sapiens); assay: Activation of Nrf2 in human HSC3-ARE9 cells assessed as increase of ARE-mediated AKR1C2 mRNA expression at 50 uM after 24 hrs by RT-PCR analysis relative to control; format: cell-based
[24] = biological target: T1, Nuclear factor erythroid 2-related factor 2 (Homo sapiens); assay: Activation of Nrf2 in human HSC3-ARE9 cells assessed as increase of ARE-mediated AKR1C3 mRNA expression at 50 uM after 24 hrs by RT-PCR analysis relative to control; format: cell-based
[25] = biological target: T1, Nuclear factor erythroid 2-related factor 2 (Homo sapiens); assay: Activation of Nrf2 in human HSC3-ARE9 cells assessed as increase of ARE-mediated GCLC mRNA expression at 50 uM after 24 hrs by RT-PCR analysis relative to control; format: cell-based

Activity [3]: 126%
Activity [4]: inactive
Activity [5]: inactive
Activity [6]: Active
Activity [7]: Active
EC50 [8]: > 400 µM
fold change (FC) [9]: 1.3
fold change (FC) [10]: 1.2
fold change (FC) [11]: 1.6
Activity [12]: Dose-dependent effect
Activity [13]: Dose-dependent effect
Activity [14]: Dose-dependent effect
Activity [15]: Dose-dependent effect
fold change (FC) [18]: 3.45
Activity [19]: Dose-dependent effect
fold change (FC) [21]: 1.3
fold change (FC) [22]: 1.5
fold change (FC) [23]: 1.4
fold change (FC) [24]: 1.3
fold change (FC) [25]: 1.6
SMILES: O=c1oc2ccccc2cc1OC/C(=N\O)c1ccccc1
Activity (Mus musculus [1]): Active
Activity (Mus musculus [2]): Non-toxic
inhibition (HSC-3): Active
Activity (Mus musculus [16]): Active
Activity (Mus musculus [17]): Active
Activity [20]: Non-toxic

— ChEMBL document CHEMBL3739322, “Novel oxime-bearing coumarin derivatives act as potent Nrf2/ARE activators in vitro and in mouse model” (Eur J Med Chem, 2015)
